Test results: PMC10215404, “Effect of Indole-Containing Pyrazino[2,1-b]quinazoline-3,6-diones in the Virulence of Resistant Bacteria” (Antibiotics, 2023)
In brackets after ≈: the same amount, converted by molar mass.

Assays:
Staphylococcus aureus = conditions: sensitive and methicillin-resistant strains of S. aureus; cited from earlier work
Enterococcus faecalis = conditions: sensitive and vancomycin-resistant strains of E. faecalis; cited from earlier work
[1] = system: human brain endothelial cell line (hCMEC/D3); design: method as in PMID 27268269; conditions: cited from earlier work
E. coli AG100 [2] = test: Real-time ethidium bromide accumulation assay (efflux pump inhibition); conditions: minute 60
[3] = system: NIH/3T3 mouse fibroblast cell line; test: Cytotoxicity assay (MTT); type: cell-based; conditions: NIH3T3, 24 h
Protocol: The effects of increasing concentrations of compounds on cell growth were tested in 96-well flat-bottomed microtiter plates. The compounds were diluted in a volume of 100 μL of medium. Afterwards, 1 × 10^4 cells in 100 μL of medium were added to each well, with the exception of the medium control. In the case of NIH/3T3 cells, the compounds were added after seeding the cells at 37 °C overnight. The plates were incubated at 37 °C for 24 h; after the incubation period, 20 μL of MTT solution (from a 5 mg/mL stock) was added to each well. After 4 h of incubation at 37 °C, 100 μL of SDS solution (10% in 0.01 M HCl) was added to each well and the plates were incubated at 37 °C overnight. Cell growth was determined by measuring the optical density (OD) at 540 nm (ref. 630 nm) with a Multiscan EX ELISA reader. Inhibition of cell growth was determined as IC50 values, defined as the inhibitory dose that reduced the growth of the cells exposed to the tested compounds by 50%. IC50 values and the SD of triplicate experiments were calculated by using GraphPad Prism software version 5.00 for Windows with a nonlinear regression curve fit (GraphPad Software, San Diego, CA, USA; www.graphpad.com, accessed on 14 July 2022). Doxorubicin (from a 2 mg/mL stock solution, Teva Pharmaceuticals) was used as the positive control.

E. coli AG100A [4] = test: Real-time ethidium bromide accumulation assay (efflux pump inhibition); conditions: compound at 100 μM, minute 60
Vibrio harveyi = conditions: aqua-pathogenic Vibrio harveyi; literature, reference not given; cited from earlier work
H1N1 = system: H1N1; design: method as in PMID 23758051; conditions: anti-viral; cited from earlier work
S. aureus 272123 = test: Real-time ethidium bromide accumulation assay (efflux pump inhibition); conditions: minute 60
E. faecalis B3/101 (VRE) = test: MIC determination, broth microdilution; type: cell-based; conditions: Enterococcus faecalis
Text: (§1) Both reference and resistant strains used in this work were employed by our group for the screening of different families of compounds, such as xanthones and thioxanthones.

[5] = system: E. coli (ATCC 25922, SA/2, AG100, AG100A); test: MIC determination, broth microdilution; type: cell-based; conditions: Escherichia coli, ATCC25922
Text: as §1

E. faecalis ATCC 29212 = test: MIC determination, broth microdilution; type: cell-based; conditions: Enterococcus faecalis, ATCC29212
Text: as §1

S. aureus 66/1 (MRSA) = test: MIC determination, broth microdilution; type: cell-based; conditions: Staphylococcus aureus
Text: as §1

P. aeruginosa ATCC 27853 = test: MIC determination, broth microdilution; type: cell-based; conditions: Pseudomonas aeruginosa, ATCC27853
Text: as §1

S. aureus MRSA 272123 = test: MIC determination, broth microdilution; type: cell-based; conditions: Staphylococcus aureus
Text: as §1

S. aureus ATCC 29213 = test: MIC determination, broth microdilution; type: cell-based; conditions: Staphylococcus aureus, ATCC29213
Text: as §1

E. coli AG100A [6] = test: Biofilm formation, crystal violet method; type: cell-based, Escherichia coli
Protocol: (§2) The antibiofilm effect of the tested compounds was evaluated using the crystal violet method on E. coli AG100, E. coli AG100A, and MRSA 272123. […] CCCP was used as a positive control.
(§3) The biofilm-forming ability of the S. aureus strains was studied in 96-well microtiter plates using TSB broth in the presence of compounds. The biofilm-forming ability of the E. coli strains was studied in 96-well microtiter plates using LB broth in the presence of the compounds. […] The final volume was 200 μL in each well. The positive control was CCCP at 50 µM. Plates were incubated for 48 h at 30 °C with gentle shaking at 100 rpm. After the incubation period, the medium was removed and the plate was washed with water to remove unattached cells. A total of 200 μL CV (0.1% [v/v]) was added to each wells and incubated for 15 min at room temperature. CV was discarded from the wells and the plate was washed with water again. Then, 200 μL of 70% ethanol was added to each well and the biofilm formation was determined by measuring the OD at 600 nm using a Multiscan EX ELISA plate reader (Thermo Labsystems, Cheshire, WA, USA). The antibiofilm effect of the compounds was expressed as the percentage (%) decrease in biofilm formation.

E. coli AG100 [7] = test: Biofilm formation, crystal violet method; type: cell-based, Escherichia coli; conditions: 50 μM
Protocol: as §2, §3

phytopathogenic fungi = system: phytopathogenic fungi; design: method as in PMID 22409377; conditions: several phytopathogenic fungi; cited from earlier work

SMILES | RFI ± SD (E. coli AG100 [2]; compound at 50 μM) | RFI ± SD (E. coli AG100 [2]; compound at 100 μM) | IC50 [3] | RFI ± SD (E. coli AG100A [4]) | RFI ± SD (S. aureus 272123; compound at 50 μM) | RFI ± SD (S. aureus 272123; compound at 100 μM) | MIC (E. faecalis B3/101 (VRE)) | MIC [5] | MIC (E. faecalis ATCC 29212) | MIC (S. aureus 66/1 (MRSA)) | MIC (P. aeruginosa ATCC 27853) | MIC (S. aureus MRSA 272123) | MIC (S. aureus ATCC 29213) | other results
CC(C)[C@@H]1NC(=O)[C@@H](C[C@]2(O)c3ccccc3N3C(=O)[C@@H](C)N[C@H]32)n2c1nc1ccccc1c2=O [Compound 3, Neofiscalin A] | – | – | – | – | – | – | – | – | – | – | – | – | – | MIC (Staphylococcus aureus): 8 µg/mL (≈ 16.9 µM); MIC (Enterococcus faecalis): 8 µg/mL (≈ 16.9 µM); cytotoxicity (in words) [1]: no cytotoxicity
O=C1NCc2nc3ccccc3c(=O)n2[C@@H]1Cc1c[nH]c2ccccc12 [Compound 1, (R)-4-((1H-indol-3-yl)methyl)-1,2-dihydro-6H-pyrazino[2,1-b]quinazoline-3,6(4H)-dione] | −0.24 ± 0.05 | −0.04 ± 0.10 | > 100 µM | 0.12 ± 0.01 | 0.23 ± 0.02 | −0.01 ± 0.04 | > 100 µM | > 100 µM | > 100 µM | > 100 µM | > 100 µM | > 100 µM | > 100 µM | MIC (Vibrio harveyi): 32 µg/mL (≈ 92.9 µM); IC50 (H1N1): 100 to 150 µM
C[C@@H]1NC(=O)[C@@H](Cc2c[nH]c3ccccc23)n2c1nc1ccccc1c2=O [Compound 2, (1S,4R)-4-((1H-indol-3-yl)methyl)-1-methyl-1,2-dihydro-6H-pyrazino[2,1-b]quinazoline-3,6(4H)-dione] | −0.31 ± 0.02 | 0.17 ± 0.10 | > 100 µM | 0.26 ± 0.10 | −0.01 ± 0.02 | 0.05 ±0.02 | > 100 µM | > 100 µM | > 100 µM | > 100 µM | > 100 µM | > 100 µM | > 100 µM | decrease in biofilm formation (E. coli AG100A [6]): 65%; antibiofilm effect (in words) (E. coli AG100 [7]): reduced the amount of biofilm; MIC (phytopathogenic fungi): 12.5 to 25 µg/mL
